According to patent publication US7544708B2, “Azabicyclo derivatives as muscarinic receptor antagonists” (Ranbaxy Laboratories Limited, priority 2002, dated 2009):
Counter-ions that a name gives are not always drawn. Like-named read-outs stand apart in the source and are kept apart here.

Key:
[1] = biological target: T1, M2 muscarinic receptor subtype (rat heart) (Rattus norvegicus, UniProt P10980); assay: Radioligand binding assay, [3H]-N-methylscopolamine, M2
T1 construct: Submandibular glands and heart were isolated and placed in ice cold homogenising buffer; from tissue; host or cells: rat heart membranes
T1 sequence (P10980 1-466): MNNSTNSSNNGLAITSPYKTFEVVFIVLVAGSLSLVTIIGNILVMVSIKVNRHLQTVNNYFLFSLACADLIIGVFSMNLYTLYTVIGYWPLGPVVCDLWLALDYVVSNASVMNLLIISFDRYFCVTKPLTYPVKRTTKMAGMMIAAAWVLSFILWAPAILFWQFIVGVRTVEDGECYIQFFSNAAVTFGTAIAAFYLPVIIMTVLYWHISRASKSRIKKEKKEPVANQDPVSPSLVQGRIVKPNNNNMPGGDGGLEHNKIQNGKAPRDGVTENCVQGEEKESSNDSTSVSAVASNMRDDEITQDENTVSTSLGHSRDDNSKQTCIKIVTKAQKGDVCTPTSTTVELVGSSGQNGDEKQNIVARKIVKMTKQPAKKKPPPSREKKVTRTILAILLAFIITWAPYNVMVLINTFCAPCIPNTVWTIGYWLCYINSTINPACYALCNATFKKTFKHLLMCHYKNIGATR
Experimental: (§1) The membrane preparation was done with the following modifications: a low spin step of 500 g for 10 minutes at 4° C. was used; the buffer was 20 mM HEPES, 10 mM EDTA, at pH 7.4; the high speed spin was done at 40,000 g and the homogenate was passed through a filter gauge before any spinning.
(§2) Membrane preparation: Submandibular glands and heart were isolated and placed in ice cold homogenising buffer (HEPES 20 mM, 10 mM EDTA, pH 7.4) immediately after sacrifice. The tissues were homogenised in 10 volumes of homogenising buffer and the homogenate was filtered through two layers of wet gauze and filtrate was centrifuged at 500 g for 10 min. The supernatant was subsequently centrifuged at 40,000 g for 20 min. The pellet thus obtained was resuspended in same volume of assay buffer (HEPES 20 mM, EDTA 5 mM, pH 7.4) and were stored at −700C until the time of assay.
(§3) Ligand binding assay: The compounds were dissolved and diluted in DMSO. The membrane homogenates (150-250 μg protein) were incubated in 250 μl of assay buffer (HEPES 20 mM, pH 7.4) at 24-25° C. for 3 h. […] The incubation was terminated by vacuum filtration over GF/B fiber filters (Wallac). The filters were then washed with ice cold 50 mM Tris HCl buffer (pH 7.4). The filter mats were dried and bound radioactivity retained on filters was counted. The IC50 and Kd were estimated by using the non-linear curve fitting program using G Pad Prism software.

[2] = biological target: T2, M3 muscarinic receptor subtype (rat submandibular gland) (Rattus norvegicus, UniProt P08483); assay: Radioligand binding assay, [3H]-N-methylscopolamine, M3
T2 construct: Submandibular glands and heart were isolated and placed in ice cold homogenising buffer; from tissue; host or cells: rat submandibular gland membranes
Experimental: as §1, §2, §3

[3] = system: carbachol evoked changes on bladder pressure, heart rate and salivation; assay: In vivo experiments using anesthetized rabbit; conditions: for ID50 Bladder Pressure / ID50 Heart Rate Response / ID50 Salivary Response: carbachol 1.5 μg/kg intrarterial, i.v. test compound; for Fold Selectivity Bladder versus Heart Rate / Fold Selectivity Bladder versus Salivary: from ID50 values
Experimental: In vivo experiments using anesthetized rabbit: The effect of test substances was studied on carbachol evoked changes on bladder pressure, heart rate and salivation. Male rabbits weighing 1.2-3 kg were anaesthetized with urethane (1.5 g/kg), and administered as a slow intravenous infusion through the marginal ear vein. The tracheae were cannulated to maintain airway patency. Blood pressure was recorded from the femoral artery by means of a Statham P10 EZ pressure transducer connected to a Grass model 7D polygraph. The heart rate was monitored by a tachograph triggered by the pulse wave of blood pressure. The other femoral artery was cannulated for the administration of carbachol. Test compound and saline were infused intravenously via the femoral vein.
The bladder was exposed through a midline laparotomy and both the ureters were identified, carefully separated and ligated. The ureters were incised proximally to allow free flow of urine from the kidney to the exterior. Bladder neck was gently held and the urethra was traced and separated from the adjoining tissues. PE canula was introduced into the bladder and ligated. The bladder was drained and subsequently filled with 15 ml of warm saline (37° C.). The other end of the intravesical catheter was connected to the Grass model 7D polygraph through a Statham P10 EZ pressure transducer to monitor the bladder pressure. Care was taken to keep the exposed area moist and warm. A period of 30-60 min was allowed for stabilization of parameters subsequent to surgery. Salivation response was assessed by placing preweighed absorbent cotton gauze in the buccal cavity for 2 minutes after carbachol administration.
At least two stable responses were obtained. These responses were considered as 100%. Subsequently, effect of increasing dose of test compound or vehicle (i.v,12 to 15 min before carbachol challenge) was studied.
The change in bladder pressure, salivation and agonist induced bradycardia were expressed as % change from pretreatment control.

[4] = Receptor Binding Assay M2 pKi, [3H]-N-methylscopolamine, rat heart membranes
[5] = Receptor Binding Assay M3 Pki, [3H]-N-methylscopolamine, rat submandibular gland membranes

T2 sequence (P08483 whole entry): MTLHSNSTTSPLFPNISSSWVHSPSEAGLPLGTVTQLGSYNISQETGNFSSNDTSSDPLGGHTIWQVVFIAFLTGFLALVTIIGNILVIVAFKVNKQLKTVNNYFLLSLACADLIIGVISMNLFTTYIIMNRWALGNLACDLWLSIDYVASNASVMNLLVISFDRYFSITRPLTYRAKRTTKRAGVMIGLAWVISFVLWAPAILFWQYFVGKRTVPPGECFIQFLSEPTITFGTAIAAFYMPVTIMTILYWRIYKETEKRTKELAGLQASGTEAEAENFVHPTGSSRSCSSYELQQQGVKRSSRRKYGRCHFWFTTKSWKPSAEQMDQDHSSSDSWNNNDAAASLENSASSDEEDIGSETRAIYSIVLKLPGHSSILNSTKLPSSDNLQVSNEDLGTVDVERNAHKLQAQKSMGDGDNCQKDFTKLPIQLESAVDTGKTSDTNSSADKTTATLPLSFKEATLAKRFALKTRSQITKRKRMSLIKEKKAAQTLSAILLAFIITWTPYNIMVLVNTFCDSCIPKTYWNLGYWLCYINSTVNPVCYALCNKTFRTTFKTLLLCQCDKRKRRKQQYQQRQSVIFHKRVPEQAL

Row | Structure (SMILES) | Ki ([1]; Receptor Binding Assay M2 pKi) [nM] | Ki ([2]; Receptor Binding Assay M3 Pki) [nM] | further results
1 | O=C(OC[C@H]1[C@@H]2CNC[C@@H]21)C(O)(c1ccccc1)c1ccccc1 [Compound 15, (2R,2S) (1α,5α,6α)-N-[3-azabicyclo[3.1.0]hexyl-6-(aminomethyl)-yl]-2-hydroxy-2,2-diphenyl acetate] |  |  | Ki [1, 4]: 0.219 nM; Ki [2, 5]: 0.0661 nM
2 | O=C(NCC1C2CNCC21)C(O)(c1ccccc1)C1CCC1 [Compound 9, (2R,2S) (1α,5α,6α)-N-[3-azabicyclo[3.1.0]hexyl-6-(aminomethyl)-yl]-2-hydroxy-2-cyclobutyl-2-phenyl acetamide] | 9.55 | 1.26 | 
3 | O=C(NC[C@H]1[C@@H]2CNC[C@@H]21)[C@](O)(c1ccccc1)C1CCC(F)(F)C1 (single isomer, unassigned) [Compound 11] | 39.8 | 1.26 | 
4 | O=C(NC[C@H]1[C@@H]2CNC[C@@H]21)[C@](O)(c1ccccc1)C1CCCC1 [Compound 4, (2R)-(1α,5α,6α)-N-[3-azabicyclo[3.1.0]hexyl-6-(aminomethyl)-yl]-2-hydroxy-2-cyclopentyl 2-phenyl acetamide hydrochloride salt] | 3.72 | 0.224 | ID50 Bladder Pressure [3]: 2.14 ± 0.42 μg/kg, i.v; ID50 Heart Rate Response [3]: 5.65 ± 0.86 μg/kg, i.v; ID50 Salivary Response [3]: 4.66 ± 0.56 μg/kg, i.v; Fold Selectivity Bladder versus Heart Rate [3]: 3.43 ± 1.02; Fold Selectivity Bladder versus Salivary [3]: 2.37 ± 0.22
5 | O=C(NCC1C2CNCC21)C(O)(c1ccccc1)C1CCC(F)C1 (mixture of isomers) [Compound 12, (2R,2S) (1α,5α,6α)-N-[3-azabicyclo[3.1.0]hexyl-6-(aminomethyl)-yl]-2-hydroxy-2-(3-fluorocyclopentyl)-2-phenyl acetamide] | 25.1 | 0.912 | 
6 | Cc1ccc(O)c([C@H](CCN(C(C)C)C(C)C)c2ccccc2)c1 [Tolterodine, reference compound] |  |  | ID50 Bladder Pressure [3]: 25.84 ± 4.24 μg/kg, i.v; ID50 Heart Rate Response [3]: 32.54 ± 5.77 μg/kg, i.v; ID50 Salivary Response [3]: 32.5 ± 10.02 μg/kg, i.v
7 | O=C(NCC1C2CNCC21)C(O)(c1ccccc1)C1CCC(F)(F)C1 (mixture of isomers) [Compound 13, (2R,2S) (1α,5α,6α)-N-[3-azabicyclo[3.1.0]hexyl-6-(aminomethyl)-yl]-2-hydroxy-2-(3,3-difluorocyclopentyl)-2-phenyl acetamide] | 50.1 | 2 | 
8 | O=C(NC[C@H]1[C@@H]2CNC[C@@H]21)C(O)(c1ccccc1)c1ccccc1 [Compound 16, (2R,2S) (1α,5α,6α)-N-[3-azabicyclo[3.1.0]hexyl-6-(aminomethyl)-yl]-2-hydroxy-2,2-diphenyl acetamide] |  |  | Ki [1, 4]: 11.2 nM; Ki [2, 5]: 0.389 nM
9 | O=C(NC[C@H]1[C@@H]2CNC[C@@H]21)C(O)(c1ccccc1)C1CCCCCC1 (mixture of isomers) [Compound 8, (2R,2S) (1α,5α,6α)-N-[3-azabicyclo[3.1.0]hexyl-6-(aminomethyl)-yl]-2-hydroxy-2-cycloheptyl-2-phenyl acetamide] | 44.7 | 1.48 | 
10 | O=C(NC[C@H]1[C@@H]2CNC[C@@H]21)[C@@](O)(c1ccccc1)C1CCCC1 [Compound 5, (2S)-(1α,5α,6α)-N-[3-azabicyclo[3.1.0]hexyl-6-(aminomethyl)-yl]-2-hydroxy-2-cyclopentyl 2-phenyl acetamide] | 158 | 31.6 | 
11 | O=C(NC[C@H]1[C@@H]2CNC[C@@H]21)C(O)(c1ccccc1)C1CCCC1 (mixture of isomers) [Compound 2, (2R,2S) (1α,5α,6α)-N-[3-azabicyclo[3.1.0]hexyl-6-(aminomethyl)-yl]-2-hydroxy-2-cyclopentyl-2-phenyl acetamide hydrochloride salt] | 4.37 | 0.316 | ID50 Bladder Pressure [3]: 3.93 ± 1.1 μg/kg, i.v; ID50 Heart Rate Response [3]: 21.13 ± 4.47 μg/kg, i.v; ID50 Salivary Response [3]: 7.67 ± 1.19 μg/kg, i.v; Fold Selectivity Bladder versus Heart Rate [3]: 12.6 ± 5.7; Fold Selectivity Bladder versus Salivary [3]: 3.08 ± 0.94
12 | COC(C(=O)NC[C@H]1[C@@H]2CNC[C@@H]21)(c1ccccc1)C1CCCC1 (mixture of isomers) [Compound 7, (2R,2S) (1α,5α,6α)-N-[3-azabicyclo[3.1.0]hexyl-6-(aminomethyl)-yl]-2-methoxy-2-cyclopentyl-2-phenyl acetamide] |  |  | Ki ([1]; [3H]-N-methylscopolamine, rat heart membranes, read-out: Receptor Binding Assay M2 pKi (converted)): 25.1 nM; Ki ([2]; [3H]-N-methylscopolamine, rat submandibular gland membranes, read-out: Receptor Binding Assay M3 Pki (converted)): 2.45 nM
13 | O=C(NCC1C2CNCC21)C(O)(c1ccccc1)C1CCC(F)(F)C1 (mixture of isomers) [Compound 14, (2R,2S) (1α,5α,6α)-N-[3-azabicyclo[3.1.0]hexyl-6-(aminomethyl)-yl]-2-hydroxy-2-(3,3-difluorocyclopentyl)-2-phenyl acetamide tartarate salt] | 72.4 | 1.35 | 
14 | O=C(NC[C@H]1[C@@H]2CNC[C@@H]21)C(O)(c1ccccc1)C1CCCCC1 (mixture of isomers) [Compound 17, (2R,2S) (1α,5α,6α)-N-[3-azabicyclo[3.1.0]hexyl-6-(aminomethyl)-yl]-2-hydroxy-2-cyclohexyl-2-phenyl acetamide] | 50.1 | 1.35 | 
15 | O=C(NC[C@H]1[C@@H]2CNC[C@@H]21)[C@@](O)(c1ccccc1)C1CCCC1 [Compound 6, (2S)-(1α,5α,6α)-N-[3-azabicyclo[3.1.0]hexyl-6-(aminomethyl)-yl]-2-hydroxy-2-cyclopentyl 2-phenyl acetamide hydrochloride salt] | 77.6 | 13.2 | 
16 | O=C(NCC1C2CNCC21)C(O)(c1ccccc1)C1CCC1 [Compound 10, (2R,2S) (1α,5α,6α)-N-[3-azabicyclo[3.1.0]hexyl-6-(aminomethyl)-yl]-2-hydroxy-2-cyclobutyl-2-phenyl acetamide tartarate salt] | 6.31 | 0.316 | 
17 | CN(C[C@H]1[C@@H]2CNC[C@@H]21)C(=O)C(O)(c1ccccc1)C1CCCC1 (mixture of isomers) [Compound 18, (2R,2S) (1α,5α,6α)-N-[3-azabicyclo[3.1.0]hex-6-ylmethyl)-2-cyclopentyl-2-hydroxy-N-methyl-2-phenyl acetamide] | 2.75 | 0.38 | 
18 | O=C(NC[C@H]1[C@@H]2CNC[C@@H]21)C(O)(c1ccccc1)C1CCCC1 (mixture of isomers) [Compound 1, (2R,2S) (1α,5α,6α)-N-[3-azabicyclo[3.1.0]hexyl-6-(aminomethyl)-yl]-2-hydroxy-2-cyclopentyl-2-phenyl acetamide] | 12 | 0.525 | melting point: 149 to 151 °C
